Literature values in PMC10006169, “A phase I trial of LXS196, a protein kinase C (PKC) inhibitor, for metastatic uveal melanoma” (British Journal of Cancer, 2023).

Legend:
patients with MUM = tested on: patients with MUM; parameters: method as in PMID 32029634; conditions: cited from earlier work
[1] = tested on: UM cell lines containing mutant GNAQ or GNA11; conditions: cited from earlier work
92.1 human UM xenograft = tested on: 92.1 human UM xenograft; parameters: method as in PMID 27507190; conditions: doses below MTD; cited from earlier work
[2] = tested on: HLA-A*02:01-positive patients with first-line MUM; parameters: method as in PMID 34551229; conditions: cited from earlier work

| Compound | Estimated median PFS (patients with MUM; 95% CI: 2.5–3.6) | ORR (patients with MUM; across all doses) | Dose-limiting toxicities (patients with MUM) | Median duration of SD (patients with MUM) | Stable disease (SD) as best response (patients with MUM) | Sensitivity of UM cell lines carrying Gα subunit mutations [1] | Tumour effect as single agent (92.1 human UM xenograft) | Hazard ratio (OS vs Investigator's choice) ([2]; 95% CI: 0.37–0.71) | 1-year OS rate ([2]; control group 59%) |
| --- | --- | --- | --- | --- | --- | --- | --- | --- | --- |
| CN1CCN(c2nc(C3=C(c4c[nH]c5ccccc45)C(=O)NC3=O)c3ccccc3n2)CC1 [AEB071, 3-(1H-Indol-3-yl)-4-[2-(4-methylpiperazin-1-yl)quinazolin-4-yl]pyrrole-2,5-dione] | 3.5 months | 3% | increased frequency of dose-limiting gastrointestinal (GI) toxicities associated with increasing dose | 3.75 months | 50% | selective sensitivity | stasis | – | – |
| tebentafusp: bispecific fusion protein (Immunocore) designed to redirect T cells to gp100-positive cells | – | – | – | – | – | – | – | 0.51 | 73% |
